Results from ChEMBL document CHEMBL4425085, “Challenges and Perspectives on the Development of Small-Molecule EGFR Inhibitors against T790M-Mediated Resistance in Non-Small-Cell Lung Cancer” (J Med Chem, 2016).

Assays:
[1] = biological target: Epidermal growth factor receptor (Homo sapiens, UniProt P00533); experiment: Binding affinity to wild type partial length human EGFR expressed in bacterial system by KINOMEscan assay
[2] = biological target: Epidermal growth factor receptor (Homo sapiens, UniProt P00533, L858R/T790M); experiment: Binding affinity to partial length human EGFR L858R/T790M double mutant expressed in mammalian system by KINOMEscan assay
Sequence of Epidermal growth factor receptor (Homo sapiens, UniProt P00533, L858R/T790M) (P00533 25-1210 T790M/L858R limits assumed): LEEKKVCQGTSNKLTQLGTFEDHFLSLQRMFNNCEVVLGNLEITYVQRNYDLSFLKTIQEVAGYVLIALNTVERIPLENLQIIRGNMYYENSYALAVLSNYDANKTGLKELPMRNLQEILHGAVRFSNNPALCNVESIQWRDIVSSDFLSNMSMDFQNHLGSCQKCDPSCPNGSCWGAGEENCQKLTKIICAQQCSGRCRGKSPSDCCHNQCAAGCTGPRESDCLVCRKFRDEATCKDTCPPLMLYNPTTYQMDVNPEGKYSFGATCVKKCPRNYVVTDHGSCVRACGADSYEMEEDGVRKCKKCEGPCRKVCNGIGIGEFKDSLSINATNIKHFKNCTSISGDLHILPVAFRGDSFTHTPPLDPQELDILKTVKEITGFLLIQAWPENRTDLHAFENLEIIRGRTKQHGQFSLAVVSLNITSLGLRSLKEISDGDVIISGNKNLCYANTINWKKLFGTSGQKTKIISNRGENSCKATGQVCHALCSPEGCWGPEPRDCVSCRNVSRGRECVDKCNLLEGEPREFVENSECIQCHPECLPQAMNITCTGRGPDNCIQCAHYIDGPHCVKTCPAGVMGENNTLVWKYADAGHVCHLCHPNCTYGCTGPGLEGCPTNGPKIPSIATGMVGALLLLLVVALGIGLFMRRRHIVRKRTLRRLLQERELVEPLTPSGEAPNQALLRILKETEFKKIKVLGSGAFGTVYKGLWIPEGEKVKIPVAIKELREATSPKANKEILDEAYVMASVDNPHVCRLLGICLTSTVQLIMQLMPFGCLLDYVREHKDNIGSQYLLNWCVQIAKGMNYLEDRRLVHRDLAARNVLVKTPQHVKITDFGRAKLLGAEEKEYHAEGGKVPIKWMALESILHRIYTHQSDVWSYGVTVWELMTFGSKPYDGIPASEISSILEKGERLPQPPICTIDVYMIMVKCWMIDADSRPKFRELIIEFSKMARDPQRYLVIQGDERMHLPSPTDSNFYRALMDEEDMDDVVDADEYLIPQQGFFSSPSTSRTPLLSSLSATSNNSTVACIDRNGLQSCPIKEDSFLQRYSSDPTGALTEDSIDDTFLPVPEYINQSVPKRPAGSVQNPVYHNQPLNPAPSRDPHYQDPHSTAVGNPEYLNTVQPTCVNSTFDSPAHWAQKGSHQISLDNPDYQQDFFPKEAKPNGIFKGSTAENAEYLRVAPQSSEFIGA

Homo sapiens = species on record: Homo sapiens; experiment: Selectivity ratio of Kd for wild type partial length human EGFR to Kd for partial length human EGFR L858R/T790M double mutant
A-431 = experiment: Antiproliferative activity against human A431 cells expressing wild type EGFR by MTS assay; format: cell-based
NCI-H1975 [3] = experiment: Antiproliferative activity against human NCI-H1975 cells expressing EGFR L858R/T790M double mutant by MTS assay; format: functional, cell-based
[4] = Selectivity ratio of IC50 for human A431 cells expressing wild type EGFR to IC50 for human NCI-H1975 cells expressing EGFR L858R/T790M double mutant
NCI-H1975 [5] = experiment: Antiproliferative activity against gefitinib resistant human NCI-H1975 cells expressing EGFR L858R/T790M double mutant after 72 hrs by MTS assay; format: functional, cell-based; settings: NCI-H1975, 72 h
BaF3 [6] = experiment: Antiproliferative activity against gefitinib resistant mouse BA/F3 cells expressing EGFR L858R/T790M double mutant after 72 hrs by MTS assay; format: functional, cell-based; settings: BaF3, 72 h
BaF3 [7] = experiment: Antiproliferative activity against gefitinib sensitive mouse BA/F3 cells expressing EGFR exon 19 del E746_A750 activating mutant after 72 hrs by MTS assay; format: functional, cell-based; settings: BaF3, 72 h
BaF3 [8] = experiment: Antiproliferative activity against mouse BA/F3 cells expressing wild type EGFR after 72 hrs by MTS assay; format: cell-based; settings: BaF3, 72 h
PC-9 = experiment: Antiproliferative activity against gefitinib resistant human PC9 cells expressing EGFR del E746_A750/T790M mutant after 72 hrs by MTS assay; format: functional, cell-based; settings: PC-9, 72 h
BaF3 [9] = experiment: Selectivity ratio of IC50 for gefitinib sensitive mouse BA/F3 cells expressing wild type EGFR to IC50 for gefitinib resistant mouse BA/F3 cells expressing EGFR L858R/T790M double mutant
BaF3 [10] = experiment: Potency index, ratio of gefitinib IC50 to compound IC50 for gefitinib resistant mouse BA/F3 cells expressing EGFR L858R/T790M double mutant; format: functional
NCI-H1975 [11] = experiment: Potency index, ratio of gefitinib IC50 to compound IC50 for gefitinib resistant human NCI-H1975 cells expressing EGFR L858R/T790M double mutant; format: functional
NCI-H1975 [12] = experiment: Antiproliferative activity against human NCI-H1975 cells expressing EGFR L858R/T790M double mutant assessed as decrease in cell viability after 48 hrs by WST assay; format: functional, cell-based; settings: NCI-H1975, 48 h

Sequence of Epidermal growth factor receptor (Homo sapiens, UniProt P00533) (P00533 whole entry): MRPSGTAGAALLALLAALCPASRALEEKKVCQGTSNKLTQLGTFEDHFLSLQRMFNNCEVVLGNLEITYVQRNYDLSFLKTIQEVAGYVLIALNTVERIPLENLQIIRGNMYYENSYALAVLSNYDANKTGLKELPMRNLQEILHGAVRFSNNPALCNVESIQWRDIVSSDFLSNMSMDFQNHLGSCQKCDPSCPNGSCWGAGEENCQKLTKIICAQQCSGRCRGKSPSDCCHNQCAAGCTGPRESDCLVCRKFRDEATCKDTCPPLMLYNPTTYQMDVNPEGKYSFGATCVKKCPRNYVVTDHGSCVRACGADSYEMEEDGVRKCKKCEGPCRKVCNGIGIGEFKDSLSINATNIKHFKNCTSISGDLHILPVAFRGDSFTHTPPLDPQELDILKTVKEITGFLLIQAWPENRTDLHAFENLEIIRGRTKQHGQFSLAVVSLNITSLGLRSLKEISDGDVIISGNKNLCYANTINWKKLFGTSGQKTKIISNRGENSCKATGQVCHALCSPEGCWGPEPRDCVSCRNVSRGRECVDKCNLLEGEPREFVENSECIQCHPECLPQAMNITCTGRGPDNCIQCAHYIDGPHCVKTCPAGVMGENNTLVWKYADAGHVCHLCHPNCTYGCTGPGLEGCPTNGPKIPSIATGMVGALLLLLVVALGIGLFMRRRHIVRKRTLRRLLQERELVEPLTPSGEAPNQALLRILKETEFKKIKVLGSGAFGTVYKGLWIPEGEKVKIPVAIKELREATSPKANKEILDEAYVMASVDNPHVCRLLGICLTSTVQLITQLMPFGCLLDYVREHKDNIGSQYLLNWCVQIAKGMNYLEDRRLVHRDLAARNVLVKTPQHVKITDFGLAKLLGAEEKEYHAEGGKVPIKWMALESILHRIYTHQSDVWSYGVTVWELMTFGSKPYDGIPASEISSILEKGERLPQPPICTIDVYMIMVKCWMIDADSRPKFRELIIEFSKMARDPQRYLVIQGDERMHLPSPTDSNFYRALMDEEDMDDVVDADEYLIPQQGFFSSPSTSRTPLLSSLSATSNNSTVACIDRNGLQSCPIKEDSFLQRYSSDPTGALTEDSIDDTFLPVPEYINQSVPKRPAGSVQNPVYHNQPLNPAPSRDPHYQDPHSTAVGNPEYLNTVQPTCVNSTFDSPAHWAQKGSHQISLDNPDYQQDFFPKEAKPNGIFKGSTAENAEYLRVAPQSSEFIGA

Row | Kd [1] [nM] | Kd [2] [nM] | Selectivity ratio (Homo sapiens) | IC50 (A-431) [nM] | IC50 (NCI-H1975 [3]) [nM] | IC50 (NCI-H1975 [5]) [nM] | IC50 (BaF3 [6]) [nM] | IC50 (BaF3 [7]) [nM] | IC50 (BaF3 [8]) [nM] | IC50 (PC-9) [nM] | IC50 (NCI-H1975 [12]) [nM] | SMILES | Ratio IC50 [4] | Ratio IC50 (BaF3 [9]) | Ratio IC50 (BaF3 [10]) | Ratio IC50 (NCI-H1975 [11])
1 | 140 | 1.8 | 78 | 2980 | 143 | – | – | – | – | – | – | C=CC(=O)Nc1cccc(-n2c3nc(Nc4ccc(N5CCN(C)CC5)cc4OC)ncc3c(=O)n3ccnc23)c1 | 21 | – | – | –
2 | – | – | – | 1040 | 55 | 47 | 8 | 3 | 113 | 14 | – | C=CC(=O)Nc1cccc(Oc2nc(Nc3ccc(N4CCN(C)CC4)cc3OC)ncc2Cl)c1 | – | – | – | –
3 | 110 | 1.1 | 100 | 3570 | 307 | – | – | – | – | – | – | C=CC(=O)Nc1cccc(-n2c3nc(Nc4ccc(N5CCN(C)CC5)cc4OC)ncc3c(=O)n3c4ccccc4nc23)c1 | 12 | – | – | –
4 | 310 | 2.6 | 119 | 14500 | 86 | – | – | – | – | – | – | C=CC(=O)Nc1cccc(-n2c3nc(Nc4ccc(N5CCN(NC)CC5)cc4OC)ncc3c(=O)n3ccnc23)c1 | 169 | – | – | –
5 | – | – | – | – | – | 9 | 9 | 2 | 32 | – | – | C=CC(=O)Nc1cccc(Sc2nc(Nc3ccc(N4CCN(C)CC4)cc3)ncc2Cl)c1 | – | 4 | 30 - 100 | 30 - 100
6 | – | – | – | – | – | – | – | – | – | – | 900 | CN(C)C/C=C/C(=O)Nc1cc2c(Nc3ccc(F)c(Cl)c3)ncnc2cc1O[C@H]1CCOC1 [AFATINIB] | – | – | – | –
7 | – | – | – | – | – | 29 | 5 | 2 | 24 | – | – | C=CC(=O)Nc1cccc(Oc2nc(Nc3ccc(N4CCN(C)CC4)cc3)ncc2Cl)c1 | – | 5 | 30 - 100 | 30 - 100
8 | 420 | 3.1 | 136 | 5250 | 396 | – | – | – | – | – | – | C=CC(=O)Nc1cccc(-n2c3nc(Nc4ccc(N5CCN(C)CC5)cc4OCC)ncc3c(=O)n3ccnc23)c1 | 13 | – | – | –
9 | 17 | 0.88 | 20 | 1540 | 648 | – | – | – | – | – | – | C=CC(=O)Nc1cccc(N2C3=NCCCCN3C(=O)c3cnc(Nc4ccc(N5CCN(C)CC5)cc4OC)nc32)c1 | 3 | – | – | –
10 | 950 | 6.1 | 156 | > 30000 | 476 | – | – | – | – | – | – | C=CC(=O)Nc1cccc(-n2c3nc(Nc4ccc(N5CCOCC5)cc4OC)ncc3c(=O)n3ccnc23)c1 | 63 | – | – | –
